pKi: −log10 of the molar value.

The assay concerns the target T1, Renin (Homo sapiens, UniProt P00797).
T1 sequence (P00797 whole entry): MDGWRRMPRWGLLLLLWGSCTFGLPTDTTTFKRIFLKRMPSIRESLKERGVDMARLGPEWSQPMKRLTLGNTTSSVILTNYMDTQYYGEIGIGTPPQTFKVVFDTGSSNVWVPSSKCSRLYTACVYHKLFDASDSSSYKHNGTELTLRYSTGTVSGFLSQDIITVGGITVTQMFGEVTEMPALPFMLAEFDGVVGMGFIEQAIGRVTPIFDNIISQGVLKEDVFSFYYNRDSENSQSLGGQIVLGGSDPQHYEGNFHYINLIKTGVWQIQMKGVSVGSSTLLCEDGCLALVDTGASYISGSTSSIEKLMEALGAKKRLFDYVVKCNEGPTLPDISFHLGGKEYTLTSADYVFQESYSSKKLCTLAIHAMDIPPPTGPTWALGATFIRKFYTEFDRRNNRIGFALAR
In words: Competitive inhibition of renin from human amniotic […].
As to `COC(=O)[C@H](Cc1ccccc1)NC(=O)[C@@H](NC(=O)[C@@H](CC(C)C)NC(=O)[C@H](O)[C@@H](N)CC(C)C)C(C)C`, the pKi is 2.82.

For the compound `COC(=O)[C@H](Cc1ccccc1)NC(=O)[C@@H](NC(=O)[C@@H](O)[C@@H](N)CC(C)CC(=O)[C@@H](N)CC(C)C)C(C)C` (stereo partly specified), the pKi is 3.28.

With `COC(=O)[C@H](Cc1ccccc1)NC(=O)[C@@H](NC(=O)[C@@H](O)[C@@H](N)CC(C)C)C(C)C`, the pKi is 2.61.

Regarding `COC(=O)[C@H](Cc1ccccc1)NC(=O)[C@@H](NC(=O)[C@H](O)[C@@H](N)CC(C)C)C(C)C`, the pKi was 3.00.

`COC(=O)[C@H](Cc1ccccc1)NC(=O)[C@@H](NC(=O)[C@H](O)[C@@H](N)CC(C)CC(=O)[C@@H](N)CC(C)C)C(C)C` (stereo partly specified) showed a pKi of 3.36.

With `COC(=O)[C@H](Cc1ccccc1)NC(=O)[C@@H](NC(=O)[C@H](CC(C)C)NC(=O)[C@@H](O)[C@@H](N)CC(C)C)C(C)C`, the pKi was 3.02.

The term pKi denotes the Ki on a negative log10 scale, so that one unit is a factor of ten.
